The structures appear in SMILES notation. pIC50: −log10 of the molar value. Entries after “also recorded” stand apart in the source; their conditions may differ.

Experimental findings from paper PMC10877733, “Discovery and Characterization of VU0542270, the First Selective Inhibitor of Vascular Kir6.1/SUR2B KATP Channels” (Molecular Pharmacology, 2024) are described below.

Series [1] concerns isolated mouse ductus arteriosus vessels. The experiment in a line: Pressure myography of isolated ductus arteriosus vessels. Conditions: term gestation mouse DA. The method, then:
CD-1 mice were maintained at Vanderbilt University Medical Center in accordance with protocols approved by the Institutional Animal Care and Use Committee. Timed matings were performed to produce offspring at specific stages of development. The presence of a vaginal plug was designated as embryonic day 1.
Term-gestation (embryonic day 19) fetal mouse DAs were isolated and mounted on glass pipet tips in microvessel perfusion chambers as previously reported ([Hooper et al., 2016]). Deoxygenated Krebs buffer was warmed to 37°C and circulated throughout the chamber. Vessels were pressurized in a stepwise manner to physiologic neonatal mouse mean arterial pressure (20 mmHg) and then challenged with 50 mM KCl to test reactivity. […] For dose-response studies, vessels were first dilated by circulating Krebs buffer bubbled with 95% nitrogen, 5% CO2 to mimic the hypoxic conditions of the womb. […] Following each dose, lumen diameters were allowed to plateau (approximately 20 minutes) before the next dose was added. Continuous lumen diameter measurements were recorded using a digital image capture system (IonOptix). An N of >6 vessels from at least three different litters was used for each experimental condition. Changes in lumen diameter are represented as the percent change in diameter compared with the baseline lumen diameter of vessels prior to drug exposure. […] Values represent mean ± S.D.

In the next series the target is T1, Kir4.2 (Homo sapiens, UniProt Q99712).
T1 construct: expressed in transfected cells
T1 sequence (Q99712 1-375): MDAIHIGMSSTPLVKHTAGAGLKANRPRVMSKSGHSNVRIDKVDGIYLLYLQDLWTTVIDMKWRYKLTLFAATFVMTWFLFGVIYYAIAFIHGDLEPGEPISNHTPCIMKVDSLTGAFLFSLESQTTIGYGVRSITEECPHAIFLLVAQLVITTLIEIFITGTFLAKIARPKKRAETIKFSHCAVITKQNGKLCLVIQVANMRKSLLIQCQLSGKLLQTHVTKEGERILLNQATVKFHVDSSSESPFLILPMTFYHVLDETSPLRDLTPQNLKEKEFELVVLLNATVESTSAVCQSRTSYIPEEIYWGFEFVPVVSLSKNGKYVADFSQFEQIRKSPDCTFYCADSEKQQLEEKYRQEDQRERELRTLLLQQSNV
The experiment in a line: Thallium flux selectivity assay Kir4.2. It is filed as cell-based. The method, then: Quantitative thallium flux assays of Kir6.1/SUR2B activity were performed essentially as described previously for Kir6.2/SUR1 ([Raphemot et al., 2014]; [Kharade et al., 2019]). Stable T-Rex-HEK293-Kir6.1/SUR2B cells or transiently transfected HEK293T cells were plated in polyamine-coated, clear-bottomed, black-walled 384-well plates and were cultured (37°C/5% CO2) overnight in Dulbecco’s modified Eagle’s medium (Gibco, Carlsbad, CA, 11995-065) containing 10% FBS (2 mM Penicillin-Streptomycin). The following day, cells were washed with assay buffer (i.e., Hanks’ balanced salt solution/20 mM HEPES) and loaded for 1 hour with thallium sensor dye Brilliant Thallium (Ion Bioscience, San Marcos, TX) at room temperature. Dye-loaded cells were washed with assay buffer and transferred to a Panoptic Kinetic Imaging Plate Reader (Wavefront Bioscience, Franklin, TN). Control and test compound treatments were for 4 minutes prior to adding 0.5 mM chloride-free thallium stimulus buffer (Ion Bioscience) to initiate thallium flux. […] Selectivity assays against other Kir channels were performed essentially as described previously ([Kharade et al., 2018]; [McClenahan et al., 2022]).

Series [2] is described as follows: Brain:plasma distribution in rat. It is filed as in vivo. Conditions: male, Sprague Dawley, brain and plasma, IV 0.2 mg/kg, 15 minutes postdose. The method, then: VU0542270 was formulated as a solution in ethanol, PEG400, and saline (1:4:5 v/v, respectively) and administered to male Sprague Dawley rats (n = 1) intravenously at 0.2 mg/kg. At 15 minutes postdose, a blood sample was collected terminally into chilled K2EDTA anticoagulant-fortified tubes and immediately placed on wet ice. The blood sample was then centrifuged (1700 rcf, 5 minutes, 4°C) to obtain a plasma sample. At the same postadministration time point(s), a whole-brain sample was obtained by rapid dissection, rinsing with PBS, and immediate freezing in individual tissue collection boxes (dry ice). All brain and plasma samples were stored at −80°C until analysis by LC-MS/MS. In vivo brain:plasma distribution partition coefficient of VU0542270 was determined from the observed animal brain versus plasma concentrations.
Plasma samples from the in-life phases of the studies were thawed at ambient temperature (benchtop), and then aliquots (20 µL per sample) were transferred to a 96-shallow-well (V-bottom) plate. […]
Prepared samples were injected (10 µL each) onto an AB Sciex triple quad-4500 mass spectrometer system with an Agilent 1290 Infinity Binary Pump and multisampler. […] Quantitation of VU0542270 was performed via AB Sciex Analyst software using the raw analyte:IS peak area ratios. […]

For the compound `Cc1nc(-c2cccs2)sc1CNC(=O)Nc1cccs1` [VU0542270], in series [1] (increasing concentrations, compound alone), the “ductus arteriosus vessel constriction” value is “induced ductus arteriosus constriction in a dose-dependent manner; also recorded: constricted in a concentration-dependent manner”. Also, the “ductus arteriosus vessel constriction in the presence of pinacidil” value in series [1] (with 10 µM pinacidil) is “substantially blunted vasoconstrictive effects”. The pIC50 against Kir4.2 was < 4.52. Moreover, in series [2], the Kp at 0.25 h turned out to be 0.11.
